As usually defined, the EC50 is the midpoint of the concentration-response curve. Low values mean an effect from little substance, high ones a need for much substance.

The results in this text go back to US20250213700A1, “COMPOUNDS, COMPOSITIONS, AND METHODS FOR CELL-SPECIFIC PHARMACOLOGY” (Duke University, priority 2022, published 2025).

T1 sequence (P0A3G2 other isoform, or with tags, fused parts or gaps with the stated changes): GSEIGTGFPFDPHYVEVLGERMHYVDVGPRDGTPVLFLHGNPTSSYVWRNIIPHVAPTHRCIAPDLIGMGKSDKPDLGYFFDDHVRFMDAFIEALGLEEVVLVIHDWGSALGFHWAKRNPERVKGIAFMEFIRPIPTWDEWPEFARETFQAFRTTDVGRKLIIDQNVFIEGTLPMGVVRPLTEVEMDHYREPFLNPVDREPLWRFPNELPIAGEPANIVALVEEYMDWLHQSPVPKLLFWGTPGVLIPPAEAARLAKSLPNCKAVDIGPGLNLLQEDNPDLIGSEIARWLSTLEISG

The first assay relates to endogenous GABAAR. Briefly: all-optical assay of GABAAR positive allosteric modulation in primary neuronal culture. The format is cell-based, rat.
Conditions: not given
The method, then:
(§1) Cultured neuronal assays: Preparation of hippocampal cultures: Mixed glial and neuronal cultures were prepared from the hippocampus of postnatal day 0 to 1 Sprague-Dawley rat pups. Separate pools of dissociated cells were transfected via electroporation (LONZA, V4SP-3096) with plasmid constructs, and depending on assay directives, either plated individually or mixed with a different pool of electroporated cells after a 10 min recovery period. Cells were cultured on coverslips (Deckglaser) pre-treated with high molecular weight poly-D-lysine (Sigma, P7405; 0.05 mg/mL) in 24-well plates and maintained in NbActiv4 (BrainBits, Nb4-500) at 37 C, 5% CO2. Media was changed by half at DIV3 or 4 and then weekly thereafter; experiments were performed between DIV16 to DIV18.
Diazepam/Flumazenil: Dissociated neurons were electroporated with constructs and cultured for 2 weeks. The assay was performed in a modified GABAR-BASE, with an increased KCl concentration to enhance neuronal excitability and a lowered GABA level for a baseline. Again, a DRUG plate and three DoseGroups were used as described above for dosing, but no final WASH. […] Imaging alignment, proof-reading and analysis were performed in a similar fashion to the GABAR assay using MatLab.
Next it was sought to extend DART to allosteric modulators. The allosteric binding site of the GABAAR, known to bind several drugs, with effects ranging from negative to positive allosteric modulation was first analyzed. Diazepam represents the prototypic PAM at this site, and is the most clinically significant of the class. Thus, a diazepam analog was synthesized with a short alkyne attached to the amide of the diazepam core; an attachment site known to tolerate substituents and thought from structural inspection of the GABAAR-bound diazepam pose to allow linker access to free solution. Click chemistry was used to assemble the full-length diazepam.1DART.2 and leveraged an all-optical assay of endogenous GABAARs in primary neuronal culture, with ChR2 and GCaMP6s in the same cell.
Take `CCOC(=O)c1ncn2c1CN(C)C(=O)c1cc(F)ccc1-2` [flumazenil, reference compound]: the GABAAR receptor modulation entry was “no receptor modulation”.

Still in this assay, the particulars now being: traditional (non-DART) version.
As to `CN1C(=O)CN=C(c2ccccc2)c2cc(Cl)ccc21` [diazepam, reference compound], the “effect on +HTP vs ddHTP cells” value is given as “equally affected”.

In the next assay the test system is endogenous GABAARs. Briefly: all-optical assay of GABAAR antagonism in primary neuronal culture. The format is cell-based, rat. The note with it: ddHTP vs +HTP cells, 15 min, 15 uM GABA. As for the experimental part:
as §1
Gabazine: Dissociated neurons were electroporated with constructs and cultured for 2 weeks. The assay was performed in the same BASE solution as described above, but with the addition of synaptic blockers CPP (NMDAR antagonist; Tocris) and NBQX (AMPAR antagonist; Abcam, ab120046) to isolate GABAR activity, and a small amount of GABA (GABAR agonist; Sigma) to ensure GABAR activity (=GABAR-BASE). […] Instead, a high dose of regular gabazine was used to completely silence any cells that may not have had realized full antagonism by the end of the assay. Imaging alignment, proof-reading and analysis were performed in a similar fashion to the AMPAR assay using MatLab.
It was next focused on blocking the GABAAR, a ubiquitous transducer of synaptic inhibition. […] The structure-activity literature of gabazine, a selective GABAAR antagonist, was explored. The core gabazine pharmacophore includes of a 3-amino, 6-phenoxy-pyridazine ring, with GABA embedded in the 2-position (2 butyric acid). Based on historical, low-potency predecessors of gabazine, a longer GABA moiety (2 pentanoic acid), and methyl substituents (e.g., 5-CH3) were explored (FIG. 2F). For each variant, the 6-phenoxy moiety was modified to make a gabazinealkyne module, which was click-conjugated to DART.2. Several variants were made, including gabazine.1^DART.2 (2 butyric acid, 5-H), gabazine.5DART.2 (2 pentanoic acid, 5-H), and gabazine.7DART.2 (2 pentanoic acid, 5-CH3). An all-optical assay of endogenous GABAARs in primary neuronal culture was then developed. […] Excitatory synapses were blocked, such that opto-stimulation with ChR2 became the only source of neural excitation.
Regarding `COc1cc(CCCCl)ccc1CCOCCNC(=O)c1ccc(CNC(=O)CCOCCOCCOCCOCCOCCOCCOCCOCCOCCOCCOCCOCCOCCOCCOCCOCCOCCOCCOCCOCCOCCOCCOCCOCCOCCOCCOCCOCCOCCOCCOCCOCCOCCOCCOCCOCCn2cc(COCCOCCOCCOCCOCCOCCOCCCCCCOc3ccc(-c4ccc(=N)n(CCCCC(=O)O)n4)cc3)nn2)cc1` [gabazine.5^DART.2], the “DW (t=15 m)” value was 1,500.

Another assay addresses T1, HaloTag Protein (HTP) on +HTP neurons (Rhodococcus rhodochrous, UniProt P0A3G2, A155T/A167V/A172T/A224E/C128F/C176G/D78G/E160K/E257K/H272N/K175M/K195N/L47V/L88M/N227D/S58T/T264A/Y273L/Y87F).
T1 construct: SSnlg signal peptide (residues 1-49 of mouse neuroligin-1) (N); ERXL (Kir2.1 trafficking and ER export signals); expressed in transfected cells; host or cells: primary rat hippocampal neurons, electroporated with plasmid
As to the kind of experiment: biotin-HTL capture dose-response on +HTP cultured neurons. In kind it is cell-based, rat. The following applies: EC 50 (nM), concentration for half-maximal capture on +HTP neurons following 15 minutes of incubation. As for the experimental part: as §1
For any given neuronal assay, coverslips were first washed briefly in a resting BASE solution containing (in mM): 4 KCl, 2 CaCl2), 2 MgCl2, 150 NaCl, 10 HEPES, 10 glucose, pH 7.4, before transfer to a glass-bottom, 24-well imaging plate (Cellvis, P24-1.5H—N). Live cell imaging was performed on an Olympus IX83 inverted fluorescent microscope (10× objective, […].) with LED illumination for GFP (Excitation=485 nm), TR (Ex=560 nm), Cy5/Alexa647 (Ex=640 nm) and Cy7/AlexaFluor750 (Cy7=740 nm) depending on the specific assay directives.
biotin-HTL: Dissociated neurons were electroporated with either the +HTP or ddHTP construct and cultured as described above. A dilution series for both the biotin-PEG12-HTL.1 and biotin-PEG12-HTL.2 compounds was made in BASE solution containing 1% BSA (Sigma A7904), representing 12 final concentrations (in uM) between 10 and 0.001. After a brief rinse in BASE+BSA to acclimate the live neurons to room temperature and avoid temperature effects to the binding kinetics, a single coverslip was incubated in one of the twelve dilutions for 15 min, washed twice in BASE+BSA, then incubated in a 1:500 dilution of Streptavidin-AlexaFluor488 (Invitrogen) for 15 min. The neurons were rinsed four times then transferred to a glass-bottom imaging plate containing BASE+BSA. Each coverslip was imaged in its entirety by combining several 10× images (TR at 10 ms; GFP at 100 ms) together using the Olympus CellSens software stitching algorithm. A dose-response curve was created from the individual coverslips using MatLab.
To enable direct quantification of capture efficiency, commercially available HTL (i.e., HTL.1) were conjugated to biotin via a flexible polyethylene glycol linker of moderate length (PEG12), to mimic the longer (PEG36) linker typically used in an RxDART. Capture kinetics were characterized on cultured neurons expressing HTP on their surface [HTPNLG(432-648), as in, to model the cellular microenvironment of interest. Dose-response curves were performed by incubating neuronal coverslips with a given ligand for 15 min, followed by washing, fluorescent labeling of biotin, and quantification of capture. […] Thus, it was reasoned that improving HTL50 would widen the DW for any Rx cargo.
Molecule `COc1cc(CCCCCl)ccc1CCOCCNC(=O)c1ccc(CNC(=O)CCOCCOCCOCCOCCOCCOCCOCCOCCOCCOCCOCCOCCNC(=O)CCCC[C@@H]2SC[C@@H]3NC(=O)N[C@@H]32)cc1` yielded an EC50 of 30 nM.

The molecule `O=C(CCCC[C@@H]1SC[C@@H]2NC(=O)N[C@@H]21)NCCOCCOCCOCCOCCOCCOCCOCCOCCOCCOCCOCCOCCC(=O)NCc1ccc(C(=O)NCCCCOc2ccc(CCCCCl)cc2O)cc1` registered an EC50 of 30 nM.

The molecule `O=C(CCCC[C@@H]1SC[C@@H]2NC(=O)N[C@@H]21)NCCOCCOCCOCCOCCOCCOCCOCCOCCOCCOCCOCCOCCC(=O)NCc1ccc(C(=O)NCCCCOc2ccc(CCCCCl)cc2Cl)cc1` yielded an EC50 of 100 nM.

As to `COc1c(/C=C\CCCl)cccc1OCCCCNC(=O)c1ccc(CNC(=O)CCOCCOCCOCCOCCOCCOCCOCCOCCOCCOCCOCCOCCNC(=O)CCCC[C@@H]2SC[C@@H]3NC(=O)N[C@@H]32)cc1`, the EC50 was 55 nM.

In turn, `O=C(CCCC[C@@H]1SC[C@@H]2NC(=O)N[C@@H]21)NCCOCCOCCOCCOCCOCCOCCOCCOCCOCCOCCOCCOCCC(=O)NCCOCCOCCCCCCCl` registered an EC50 of 1000 nM.

`CCOc1cc(CCCCCl)ccc1OCCCCNC(=O)c1ccc(CNC(=O)CCOCCOCCOCCOCCOCCOCCOCCOCCOCCOCCOCCOCCNC(=O)CCCC[C@@H]2SC[C@@H]3NC(=O)N[C@@H]32)cc1`: the EC50 came to 70 nM.

In turn, `COc1cc(CCCCl)ccc1C(=O)NCCCNC(=O)c1ccc(CNC(=O)CCOCCOCCOCCOCCOCCOCCOCCOCCOCCOCCOCCOCCNC(=O)CCCC[C@@H]2SC[C@@H]3NC(=O)N[C@@H]32)cc1` [drawing 134] had an EC50 of 280 nM.

In the case of `COc1cc(CCCCl)ccc1CC(=O)NCCNC(=O)c1ccc(CNC(=O)CCOCCOCCOCCOCCOCCOCCOCCOCCOCCOCCOCCOCCNC(=O)CCCC[C@@H]2SC[C@@H]3NC(=O)N[C@@H]32)cc1`, the EC50 turned out to be 20000 nM.

As to `COc1cc(CCCCl)ccc1CCOCCNC(=O)c1ccc(CNC(=O)CCOCCOCCOCCOCCOCCOCCOCCOCCOCCOCCOCCOCCNC(=O)CCCC[C@@H]2SC[C@@H]3NC(=O)N[C@@H]32)cc1`, the midpoint of the response, the EC50, lay at 10 nM.

With `COc1cc(/C=C/CCCl)ccc1CCOCCNC(=O)c1ccc(CNC(=O)CCOCCOCCOCCOCCOCCOCCOCCOCCOCCOCCOCCOCCNC(=O)CCCC[C@@H]2SC[C@@H]3NC(=O)N[C@@H]32)cc1`, it took 20 nM to reach a half-maximal effect (EC50).

On to `O=C(CCCC[C@@H]1SC[C@@H]2NC(=O)N[C@@H]21)NCCOCCOCCOCCOCCOCCOCCOCCOCCOCCOCCOCCOCCC(=O)NCc1ccc(C(=O)NCCCCOc2ccc(CCCCCl)cc2OC(F)(F)F)cc1`, for which it took 1500 nM to reach a half-maximal effect (EC50).

For the molecule `COc1cc(CCCCl)ccc1C(=O)NCCCNC(=O)c1ccc(CNC(=O)CCOCCOCCOCCOCCOCCOCCOCCOCCOCCOCCOCCOCCNC(=O)CCCC[C@@H]2SC[C@@H]3NC(=O)N[C@@H]32)cc1` [drawing 135], the response was half-maximal at 200 nM (EC50).

`COc1cc(CCCCl)ccc1OCCCCNC(=O)c1ccc(CNC(=O)CCOCCOCCOCCOCCOCCOCCOCCOCCOCCOCCOCCOCCNC(=O)CCCC[C@@H]2SC[C@@H]3NC(=O)N[C@@H]32)cc1` returned an EC50 of 50 nM.

For `COc1cc(CCCCl)ccc1C(=O)NCCCNC(=O)c1ccc(CNC(=O)CCOCCOCCOCCOCCOCCOCCOCCOCCOCCOCCOCCOCCNC(=O)CCCC[C@@H]2SC[C@@H]3NC(=O)N[C@@H]32)cc1` [drawing 133], the EC50 came to 200 nM.

Consider `O=C(CCCC[C@H]1SC[C@H]2NC(=O)N[C@H]21)NCCOCCOCCOCCOCCOCCOCCOCCOCCOCCOCCOCCOCCC(=O)NCc1ccc(C(=O)NCCCCOc2ccc(CCCCCl)cc2F)cc1`, for which the EC50 turned out to be 45 nM.

In turn, `O=C(CCCC[C@@H]1SC[C@@H]2NC(=O)N[C@@H]21)NCCOCCOCCOCCOCCOCCOCCOCCOCCOCCOCCOCCOCCC(=O)NCc1ccc(C(=O)NCCOCCOCCCCCCCl)cc1` registered an EC50 of 150 nM.

`COc1cc(CCCCBr)ccc1OCCCCNC(=O)c1ccc(CNC(=O)CCOCCOCCOCCOCCOCCOCCOCCOCCOCCOCCOCCOCCNC(=O)CCCC[C@@H]2SC[C@@H]3NC(=O)N[C@@H]32)cc1`: the EC50 was 30 nM.

The molecule `COc1cc(CCCCI)ccc1OCCCCNC(=O)c1ccc(CNC(=O)CCOCCOCCOCCOCCOCCOCCOCCOCCOCCOCCOCCOCCNC(=O)CCCC[C@@H]2SC[C@@H]3NC(=O)N[C@@H]32)cc1` returned an EC50 of 30 nM.

`O=C(CCCC[C@H]1SC[C@H]2NC(=O)N[C@H]21)NCCOCCOCCOCCOCCOCCOCCOCCOCCOCCOCCOCCOCCC(=O)NCc1ccc(C(=O)NCCCCOc2ccc(CCCCCl)cc2)cc1` had an EC50 of 110 nM.

Molecule `COc1cc(CCCCCCl)ccc1CCOCCNC(=O)c1ccc(CNC(=O)CCOCCOCCOCCOCCOCCOCCOCCOCCOCCOCCOCCOCCNC(=O)CCCC[C@@H]2SC[C@@H]3NC(=O)N[C@@H]32)cc1` had an EC50 of 4000 nM.

In the case of `Nc1cc(CCCCCl)ccc1OCCCCNC(=O)c1ccc(CNC(=O)CCOCCOCCOCCOCCOCCOCCOCCOCCOCCOCCOCCOCCNC(=O)CCCC[C@H]2SC[C@H]3NC(=O)N[C@H]32)cc1`, the EC50 was 70 nM.
